Laboratory results from paper PMC11590367, “Characterization of novel small molecule inhibitors of estrogen receptor-activation function 2 (ER-AF2)” (Breast Cancer Research : BCR, 2024).
“Also recorded” adds a separate entry of the source.

How the values were obtained:
Format in all cases: cell-based
MDA-MB-231 cells = assay: PrestoBlue viability assay, MDA-MB-231; conditions: dose response 50 to 0.01 µM, 1 nM E2
Method: T47D, MCF7, TamR3, and MDA-MB-231 cells were starved for 72 h and then seeded into black clear-bottom 96-well plates (Corning Life Sciences Cat#3904) at 20,000 cells/well (T47D, MCF7, TamR3) or 5,000 cells/well (MDA-MB-231). […] 20 µl of PrestoBlue Cell Viability Reagent (Thermo Fisher A13262) was added to each well and incubated at 37 °C for 1 h. Fluorescence intensity was measured using the TECAN F500 plate reader with emission and excitation wavelengths of […], respectively.

[1] = molecular target: T1, ER-SRC3 interaction in TamR3 cells (Homo sapiens, UniProt P03372); assay: Proximity ligation assay (PLA), TamR3
T1 construct: endogenous in cells; host or cells: MCF7 or TamR3 cells
T1 sequence (P03372 whole entry): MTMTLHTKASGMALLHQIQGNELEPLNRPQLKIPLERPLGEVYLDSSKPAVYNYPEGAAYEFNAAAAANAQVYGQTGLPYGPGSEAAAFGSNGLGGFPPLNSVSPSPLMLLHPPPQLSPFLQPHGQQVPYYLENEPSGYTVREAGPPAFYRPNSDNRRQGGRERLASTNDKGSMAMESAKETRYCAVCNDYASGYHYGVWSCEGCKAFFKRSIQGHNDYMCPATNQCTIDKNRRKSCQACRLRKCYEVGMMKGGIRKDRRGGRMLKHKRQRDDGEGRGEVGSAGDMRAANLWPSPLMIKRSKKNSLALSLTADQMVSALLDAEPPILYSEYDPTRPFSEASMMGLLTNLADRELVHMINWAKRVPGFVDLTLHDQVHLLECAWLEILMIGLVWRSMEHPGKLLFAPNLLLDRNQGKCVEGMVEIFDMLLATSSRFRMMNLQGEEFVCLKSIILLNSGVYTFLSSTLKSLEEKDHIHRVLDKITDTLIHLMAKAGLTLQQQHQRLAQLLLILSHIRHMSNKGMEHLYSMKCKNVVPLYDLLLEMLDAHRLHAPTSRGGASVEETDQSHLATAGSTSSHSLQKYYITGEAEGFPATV
Method: (§1) MCF7 or TamR3 cells were starved for 72 h and then seeded onto PEI coated coverslips in a 6-well plate at 1 × 10^5 cells/well. For the E2 experiments, the cells were treated the following day with 10 µM of ER-AF2 inhibitor for 24 h, with E2 added 1 h before fixation. […] 24 h post-treatment, cells were fixed in methanol:acetone (3:1). Coverslips were then permeabilized with 0.05% Triton X-100 for 5 minutes at room temperature. The Duolink In Situ Detection Reagents Red kit from Millipore Sigma (DUO92008) was used for blocking and PLA according to the manufacturer’s protocol.

[2] = molecular target: ER-Y537S - SRC3 interaction (Homo sapiens, UniProt P03372, Y537S); assay: Proximity ligation assay, ER-Y537S mutant; conditions: PLA, 10 µM
Chain of ER-Y537S - SRC3 interaction (P03372 whole entry Y537S): as the sequence (P03372 whole entry) above, with Y537S counted along it
Method: as §1, with “protocol. Primary antibodies, Estrogen Receptor alpha antibody (F-10) (sc-8002) and Rabbit anti-SRC3 antibody (A300-348 A), were diluted 1:50 in antibody diluent.” for “protocol.”

Q: What does the source list for Cc1cccn2c(CNCc3cccc(N(C)C)n3)cnc12 [VPC-260724]?
A: Effect on viability of ER-negative MDA-MB-231 cells (MDA-MB-231 cells): minimal impact; also recorded: did not affect the viability; ER-SRC3 interaction in TamR3 in presence of tamoxifen ([1]; 10 µM with 1 µM Tamoxifen): reduced this interaction; ER-SRC3 interactions (PLA signals per nuclei), TamR3 ([1]; 10 µM, 48 h, E2 stimulation): significantly reduced ER-SRC3 interactions; Interaction between SRC3 and ER-Y537S [2]: inhibited the interaction
